Where “and” joins values, the source holds several entries; their conditions need not be identical. Equal entries are not always repeated. Entries after “also recorded” stand apart in the source; their conditions may differ.
Columns and labels:
Assay type in all cases: cell-based
[1] = tested on: H3K9ac at the integrated HIV-1 long terminal repeat (LTR); assay: ChIP for H3K9ac at integrated HIV-1 LTR in TZMbl cells; conditions: 50 μM Ro5-3335, 10 μM Alprazolam or 10 μM Clonazepam with 5 μM SAHA, 48 h
Method: (§1) TZMbl cells were cultured with benzodiazepines for 48 hours before chromatin immunoprecipitation analysis. Following treatment, cells were processed for chromatin immunoprecipitation using the Pierce Agarose ChIP Kit (Fisher Scientific) using commercially available antibodies against histone H3 lysine 9 acetylation, STATS, and CBP/P300. Degree of occupancy at the integrated HIV-1 LTR was determined by qPCR using HIV-1 LTR specific primers run on a BioRad CFX384 qPCR machine using Sybr Green methodology.
In order to test the changes driven by these compounds, chromatin immunoprecipitation (ChIP) assays were performed to examine the presence of various proteins and modifications at the integrated HIV-1 long terminal repeat (LTR). TZMbl cells were treated for 48 hours with 50 μM Ro5-3335, 10 μM Alprazolam and 10 μM Clonazepam with or without 5 μM SAHA Acetylation of histone 3 at lysine 9 (H3K9ac) was first examined (FIG. 3B). […] None of the benzodiazepines were able to alter H3K9ac when used alone.

[2] = tested on: acetylated histone 3 at lysine 9 (H3K9); assay: NUCLEO-M imaging of acetylated H3K9 in isolated nuclei; conditions: Ro5-3335 and SAHA, FIG. 3A
Method: Transcriptionally competent nuclei were isolated from TZM-bl cells by chemical lysis and stored following manufacturer's recommendations (Nuclei Isolation Kit: Nuclei EZ Prep, Sigma-Aldrich, Nuc-101). Nuclei were stained for 1 hour on ice in 5% FBS/PBS solution containing primary antibodies. Nuclei were washed twice in 5% FBS/PBS and stained for 1 hour on ice with appropriate secondary antibodies conjugated with fluorescent dyes. Nuclei were finally washed twice in 5% FBS/PBS and resuspended in the storage buffer provided by the kit (Nuclei Isolation Kit: Nuclei EZ Prep, Sigma-Aldrich, Nuc-101).
Isolated nuclei and TZM-bl cells seeded on a chambered coverglass (NUNC® LAB-TEK® Chambered Coverglass, Thermo Fisher) were imaged with a Zeiss AXIOVERT® microscope with a Zeiss alpha PLAN-FLUAR® 100×, 1.45 N.A., oil objective and a spinning disk confocal scan head (Yokogawa CSU-X1). A 488 nm laser source with 488-25 nm, 617-73 nm and 692-40 nm emission filters were used for the illumination of Alexa Fluor® 488 dye (Thermo Fisher) or SYTO® RNA SELECT® Green Fluorescent cell Stain (Thermo Fisher), and PerCP-Cy5.5 (BD Biosciences) respectively. A 561 nm laser source with 568-25 nm emission filters was used for illumination of ALEXA FLUOR® 555 dye (Thermo Fisher). Digital images were captured sequentially by a high-speed EM-CCD camera with 100 ms exposure time (Photometrics EVOLVE® 512). […]

RUNX1 responsive genes = assay: RUNX responsive gene expression (qPCR) in PBMCs from HIV-1 patients; conditions: PBMCs of three HIV-1 patients, 48 h
Method: (§2) To evaluate the ability of Alprazolam to reactivate latent cells from patients we obtained PBMCs from two HIV-1 patients who had been suppressed on therapy for greater than 6 months. 10×10^6 PBMCs were divided between three conditions: DMSO control, 50 μM Ro5-3335 and 10 μm Alprazolam. PBMCs were cultured in RPMI with 10% FBS and the given drugs for twenty-four hours. RNA was extracted from the cells and used for RTqPCR to detect HIV-1 Gag mRNA. RNA was extracted using Trizol reagent (Invitrogen) following manufacturer's protocol. Following reverse transcription, the samples were diluted 1:50, and 2.5 microliters were used for quantitative PCR in a BioRad CFX384 qPCR machine. All mRNA analyses were normalized to GAPDH. Nucleic acid amplification was tracked by SYBR Green method.
Next, expression of several RUNX responsive genes in PBMCs in response to Ro5-3335 and Alprazolam was examined. Samples from three HIV-1 patients were treated with Alprazolam or Ro5-3335 for 48 hours. RNA was harvested using Trizol and cDNA was synthesized using RT reaction. qPCR was performed using primers for seven known RUNX1 responsive genes: APOBEC3C, APOBEC3G, Tbet, RUNX1 d, IL-2, IL7R and STAH (FIG. 5).

HIV-1 Tat = target: T1, HIV-1 Tat (Human immunodeficiency virus type 1 group M subtype B, UniProt P04608); conditions: TZMbl cells transfected with Tat plasmid, 24 h treatment, FIG. 3E
T1 construct: expressed in transfected cells; host or cells: TZMbl cells

HIV-1 Gag mRNA = HIV-1 Gag mRNA (RTqPCR) in ex vivo treated PBMCs from HIV-1 patients; conditions: 50 μM Ro5-3335 alone, 24 h, two patients, versus DMSO control
Method: as §2
In order to evaluate the ability of Alprazolam to reactivate latent cells from patients, PBMCs were obtained from two HIV-1 patients who had been suppressed on therapy for greater than 6 months. 10×10^6 PBMCs were divided between three conditions: DMSO control, 50 μM Ro5-3335 and 10 μm Alprazolam. PBMCs were cultured in RPMI with 10% FBS and the given drugs for twenty-four hours. RNA was extracted from the cells and used for RTqPCR to detected HIV-1 Gag mRNA (FIG. 6). […] Treatment with Alprazolam produced detectable reactivation of HIV-1 transcripts.

CBP/P300 = assay: ChIP for CBP/P300 at integrated HIV-1 LTR in TZMbl cells; conditions: addition of 50 μM Ro5-3335 or 10 μM Alprazolam, 48 h, FIG. 3D
Method: as §1
Therefore, ChIP was performed for STATS to determine if benzodiazepine treatment might increase the recruitment of STATS above SAHA treatment (FIG. 3C). All three benzodiazepines were capable of driving recruitment of STATS to the promoter, and further recruitment was seen when used in combination with SAHA. STATS is capable of recruiting the histone acetyl transferase CBP/P300 that acetylates histone 3 at lysine 27, a residue that is not affected by SAHA. […] Addition of both Ro5-3335 and Alprazolam induced recruitment of CBP/P300 to the HIV-1 LTR (by 3 and 7 fold respectively).

IL-17 promoter = IL-17 promoter luciferase reporter assay in 293T cells; conditions: all three conditions: alone, with SAHA, with RUNX1 overexpression
[3] = tested on: latent HIV-1 in JLat10.6 cell line model of T-cell latency; conditions: Ro5-3335 by itself, without SAHA

T1 sequence (P04608 whole entry): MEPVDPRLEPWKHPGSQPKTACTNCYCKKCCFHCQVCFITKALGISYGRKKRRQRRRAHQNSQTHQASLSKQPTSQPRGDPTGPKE

O=C1CN=C(c2ccc[nH]2)c2cc(Cl)ccc2N1 [Ro5-3335]
H3K9ac at the HIV-1 LTR versus SAHA alone (in words) [1]: potentiation was not seen
acetylated H3K9 in the nuclei (in words) [2]: further increased the acetylation; also recorded: increase in acetylated histone 3 at lysine 9
expression of seven selected RUNX responsive genes (in words) (RUNX1 responsive genes): significantly altered the expression of five of the selected RUNX responsive genes
luciferase expression driven by Tat (in words) (HIV-1 Tat): significantly suppressed luciferase expression; also recorded: significant suppression of Tat
increase in HIV-1 transcripts (Gag mRNA) (HIV-1 Gag mRNA): 1.5 fold and 1.2 fold
recruitment of CBP/P300 to the HIV-1 LTR (CBP/P300): 3 fold
IL-17 promoter activity (in words) (IL-17 promoter): inhibited IL-17 promoter in a dose dependent fashion
activation of latent virus (in words) [3]: did not activate the virus by itself

— patent US11554123B2, “Compositions and methods for reactivating latent HIV-1 infections” (Saint Joseph's University, priority 2017, dated 2023)
